Results reported in US8501238B2, “Anti-infective agents and uses thereof” (priority 2007, dated 2013).

Experiments:
[1] = tested on: genotype 1b-Con1 subgenomic replicon cell line; assay: microbe, parasite or virus in culture; format: cell-based, HCV; details: Hepatitis C virus, 72 h, read-out: EC50 1b
[2] = tested on: genotype 1a-H77 subgenomic replicon cell line; assay: microbe, parasite or virus in culture; format: cell-based, HCV; details: Hepatitis C virus, 72 h, read-out: EC50 1a
[3] = molecular target: T1, HCV polymerase 1A (Δ21 NS5B) (Hepatitis C virus genotype 1a, UniProt P27958); assay: HCV Polymerase Inhibition Assay (1a); format: biochemical
T1 construct: 20 to 50nM Δ21 NS5B
T1 sequence (P27958 2421-2990, stated change not applied): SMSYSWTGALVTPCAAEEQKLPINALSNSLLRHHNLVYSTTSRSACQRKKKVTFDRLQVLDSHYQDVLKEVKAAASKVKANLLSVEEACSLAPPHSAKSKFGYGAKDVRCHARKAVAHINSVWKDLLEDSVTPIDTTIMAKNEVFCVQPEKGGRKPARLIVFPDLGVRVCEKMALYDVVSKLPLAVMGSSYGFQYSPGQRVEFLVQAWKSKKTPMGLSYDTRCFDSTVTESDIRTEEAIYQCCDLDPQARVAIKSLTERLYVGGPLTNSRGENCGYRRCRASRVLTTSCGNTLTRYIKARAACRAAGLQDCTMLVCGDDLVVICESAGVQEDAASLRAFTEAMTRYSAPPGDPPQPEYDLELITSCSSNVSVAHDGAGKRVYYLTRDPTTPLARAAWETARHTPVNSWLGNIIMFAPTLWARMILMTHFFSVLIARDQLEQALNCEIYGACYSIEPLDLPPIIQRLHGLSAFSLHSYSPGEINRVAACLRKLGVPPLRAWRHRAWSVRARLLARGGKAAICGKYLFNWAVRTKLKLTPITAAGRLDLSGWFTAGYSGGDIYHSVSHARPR
Experimental: The reaction was initiated by the addition of 20μM CTP, 20μM ATP, 1μM ^3H-UTP (10mCi/umol), 5nM template RNA and 0.1 U/μl RNase inhibitor (RNasin, Promega), and allowed to proceed for 2 to 4h at room temperature. Reaction volume was 50μl. The reaction was terminated by the addition of 1 volume of 4mM spermine in 10mM Tris-Cl pH 8.0, 1mM EDTA. After incubation for at least 15 min at room temperature, the precipitated RNA was captured by filtering through a GF/B filter (Millipore) in a 96 well format. The filter plate was washed three times with 200μl each of 2mM spermine, 10mM Tris-Cl pH 8.0, lmM EDTA, and 2 times with ethanol. After air-drying, 30μl of Microscint 20 scintillation cocktail (Packard) was added to each well, and the retained cpm were determined by scintillation counting. […] Retained cpm were plotted vs. inhibitor concentration and fit to equation 1 using non-linear regression (ref. 1) to obtain the IC50 values: Retained cpm=A[sqrt{(IC50+It−Et)^2+4*IC50*Et}−([…])]
Ref. Morrison, J. F. and S. R. Stone. […] Approaches to the study and analysis of the inhibition of enzymes by slow- and tight-binding inhibitors. Comments Mol. Cell. Biophys.
(§1) The sequence of the template RNA used was: 5′-[…]-3′

[4] = molecular target: T2, HCV polymerase 1B (Δ21 NS5B) (Hepatitis C virus genotype 1b, UniProt P26663); assay: biochemical
T2 construct: 20 to 50nM Δ21 NS5B
T2 sequence (P26663 2420-2989, stated change not applied): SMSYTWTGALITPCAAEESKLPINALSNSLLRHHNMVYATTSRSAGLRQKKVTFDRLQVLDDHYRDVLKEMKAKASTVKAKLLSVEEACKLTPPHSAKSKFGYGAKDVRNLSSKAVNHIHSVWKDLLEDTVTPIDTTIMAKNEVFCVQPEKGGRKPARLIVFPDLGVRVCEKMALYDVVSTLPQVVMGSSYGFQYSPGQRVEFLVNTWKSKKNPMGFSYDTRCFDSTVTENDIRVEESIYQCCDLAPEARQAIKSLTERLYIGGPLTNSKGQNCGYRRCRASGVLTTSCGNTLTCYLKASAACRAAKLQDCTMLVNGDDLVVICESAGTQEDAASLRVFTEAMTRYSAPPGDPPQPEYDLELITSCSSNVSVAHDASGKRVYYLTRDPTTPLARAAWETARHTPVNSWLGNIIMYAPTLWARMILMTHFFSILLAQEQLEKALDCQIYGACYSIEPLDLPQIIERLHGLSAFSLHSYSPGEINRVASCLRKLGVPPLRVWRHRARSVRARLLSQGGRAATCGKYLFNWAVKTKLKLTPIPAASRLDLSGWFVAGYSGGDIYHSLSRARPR
Experimental: Either two-fold serial dilutions (fractional inhibition assay) or a narrower range of dilutions spanning the IC50 of the inhibitor (tight binding assay) of the inhibitors were incubated with 20mM Tris-Cl pH 7.4, 2 mM MnCl2, 1 mM dithiothreitol, 1 mM ethylene diamine tetraacetic acid (EDTA), 60 to 125μM GTP and 20 to 50nM Δ21 NS5B (HCV Strain 1B (BK, Genbank accession number M58335, or H77, Genbank accession number AF011751)) for 15min at room temperature. The reaction was initiated by the addition of 20μM CTP, 20μM ATP, 1μM ^3H-UTP (10mCi/umol), 5nM template RNA and 0.1 U/μl RNase inhibitor (RNasin, Promega), and allowed to proceed for 2 to 4h at room temperature. Reaction volume was 50μl. The reaction was terminated by the addition of 1 volume of 4mM spermine in 10mM Tris-Cl pH 8.0, 1mM EDTA. After incubation for at least 15 min at room temperature, the precipitated RNA was captured by filtering through a GF/B filter (Millipore) in a 96 well format. The filter plate was washed three times with 200μl each of 2mM spermine, 10mM Tris-Cl pH 8.0, lmM EDTA, and 2 times with ethanol. After air-drying, 30μl of Microscint 20 scintillation cocktail (Packard) was added to each well, and the retained cpm were determined by scintillation counting. […] Retained cpm were plotted vs. inhibitor concentration and fit to equation 1 using non-linear regression (ref. 1) to obtain the IC50 values: Retained cpm=A[sqrt{(IC50+It−Et)^2+4*IC50*Et}−([…])]
Ref. Morrison, J. F. and S. R. Stone. 1985. Approaches to the study and analysis of the inhibition of enzymes by slow- and tight-binding inhibitors. Comments Mol. Cell. Biophys. 2: 347-368.
as §1

Row | Compound | EC50 [1] | EC50 [2] | IC50 [3] | IC50 [4]
1 | COc1c(-c2ccc3c(c2)CC[C@@H]3CNS(C)(=O)=O)cc(-n2ccc(=O)[nH]c2=O)cc1C(C)(C)C (single isomer, unassigned) [IB-L0-2.9] | < 10 nM | < 10 nM |  | 
2 | COc1c(-c2ccc3c(c2)CC[C@H]3CNS(C)(=O)=O)cc(-n2ccc(=O)[nH]c2=O)cc1C(C)(C)C (single isomer, unassigned) [IB-L0-2.15] | 10 to 100 nM | 100 to 1000 nM |  | 
3 | COc1c(-c2ccc3c(c2)CC[C@@H]3C(C)(C)NS(C)(=O)=O)cc(-n2ccc(=O)[nH]c2=O)cc1C(C)(C)C (single isomer, unassigned) [IB-L0-2.22] | 10 to 100 nM | 100 to 1000 nM |  | 
4 | COc1c(-c2ccc3c(c2)CC[C@H]3C(C)(C)NS(C)(=O)=O)cc(-n2ccc(=O)[nH]c2=O)cc1C(C)(C)C (single isomer, unassigned) [IB-L0-2.37] | 100 to 1000 nM | > 1000 nM |  | 
5 | CC(C)(C)c1cc(-c2ccc3c(c2)CC/C3=N\NS(C)(=O)=O)cc(-n2ccc(=O)[nH]c2=O)c1 [IB-L0-2.7, (E)-N-(5-(3-tert-butyl-5-(2,4-dioxo-3,4-dihydropyrimidin-1(2H)-yl)phenyl)-2,3-dihydro-1H-inden-1-ylidene)methanesulfonohydrazide] | 10 to 100 nM | 100 to 1000 nM |  | 
6 | COc1c(-c2ccc3c(CNS(C)(=O)=O)csc3c2)cc(-n2ccc(=O)[nH]c2=O)cc1C(C)(C)C [IB-L0-2.11] | < 10 nM | 10 to 100 nM |  | 
7 | COc1c(-c2ccc3c(c2)CCC3(F)CNS(C)(=O)=O)cc(-n2ccc(=O)[nH]c2=O)cc1C(C)(C)C (centres unmarked) [IB-L0-2.12, N-((5-(3-tert-butyl-5-(2,4-dioxo-3,4-dihydropyrimidin-1(2H)-yl)-2-methoxyphenyl)-1-fluoro-2,3-dihydro-1H-inden-1-yl)methyl)methanesulfonamide] | < 10 nM | 10 to 100 nM |  | 
8 | COc1c(-c2ccc3c(c2)CC=C3CNS(C)(=O)=O)cc(-n2ccc(=O)[nH]c2=O)cc1C(C)(C)C [IB-L0-2.13] | < 10 nM | 10 to 100 nM |  | 
9 | COc1c(-c2ccc3c(c2)CC=C3CN(C)S(C)(=O)=O)cc(-n2ccc(=O)[nH]c2=O)cc1C(C)(C)C [IB-L0-2.16] |  |  | < 10 nM | 10 to 100 nM
10 | COc1c(-c2ccc3c(c2)CCC3CNS(C)(=O)=O)cc(-n2ccc(=O)[nH]c2=O)cc1C(C)(C)C (centres unmarked) [IB-L0-2.17, N-((5-(3-tert-butyl-5-(2,4-dioxo-3,4-dihydropyrimidin-1(2H)-yl)-2-methoxyphenyl)-2,3-dihydro-1H-inden-1-yl)methyl)methanesulfonamide] | < 10 nM | 10 to 100 nM |  | 
11 | COc1c(-c2ccc3c(CNS(C)(=O)=O)coc3c2)cc(-n2ccc(=O)[nH]c2=O)cc1C(C)(C)C [IB-L0-2.18] | 10 to 100 nM | 100 to 1000 nM |  | 
12 | COc1c(-c2ccc3c(CN(C)S(C)(=O)=O)csc3c2)cc(-n2ccc(=O)[nH]c2=O)cc1C(C)(C)C [IB-L0-2.21] | 10 to 100 nM | 100 to 1000 nM |  | 
13 | COC(=O)NN=C1CCc2cc(-c3cc(-n4ccc(=O)[nH]c4=O)cc(C(C)(C)C)c3OC)ccc21 [IB-L0-2.24, methyl 2-(5-(3-tert-butyl-5-(2,4-dioxo-3,4-dihydropyrimidin-1 (2H)-yl)-2-methoxyphenyl)-2,3-dihydro-1H-inden-1-ylidene)hydrazinecarboxylate] | 10 to 100 nM | 10 to 100 nM |  | 
14 | COc1c(-c2ccc3c(c2)CCC3(C)CNS(C)(=O)=O)cc(-n2ccc(=O)[nH]c2=O)cc1C(C)(C)C (centres unmarked) [IB-L0-2.25, N-((5-(3-tert-butyl-5-(2,4-dioxo-3,4-dihydropyrimidin-1(2H)-yl)-2-methoxyphenyl)-1-methyl-2,3-dihydro-1H-inden-1-yl)methyl)methane sulfonamide] | 10 to 100 nM | 100 to 1000 nM |  | 
15 | COc1c(-c2ccc3c(c2)CCC3C(C)(C)NS(C)(=O)=O)cc(-n2ccc(=O)[nH]c2=O)cc1C(C)(C)C (centres unmarked) [IB-L0-2.29, N-(2-(5-(3-tert-butyl-5-(2,4-dioxo-3,4-dihydropyrimidin-1(2H)-yl)-2-methoxyphenyl)-2,3-dihydro-1H-inden-1-yl)propan-2-yl)methanesulfonamide] | 10 to 100 nM | 100 to 1000 nM |  | 
16 | COc1c(-c2ccc3c(c2)CCC3C(=O)NS(C)(=O)=O)cc(-n2ccc(=O)[nH]c2=O)cc1C(C)(C)C (centres unmarked) [IB-L0-2.34, 5-(3-tert-butyl-5-(2,4-dioxo-3,4-dihydropyrimidin-1(2H)-yl)-2-methoxyphenyl)-N-(methylsulfonyl)-2,3-dihydro-1H-indene-1-carboxamide] | 100 to 1000 nM | > 1000 nM |  | 
17 | CC(C)(C)c1cc(-n2ccc(=O)[nH]c2=O)cc(-c2ccc3c(CNS(C)(=O)=O)csc3c2)c1Cl [IB-L0-2.35, N-((6-(3-tert-butyl-2-chloro-5-(2,4-dioxo-3,4-dihydropyrimidin-1(2H)-yl)phenyl)benzo [b]thiophen-3-yl)methyl)methanesulfonamide] | 100 to 1000 nM | > 1000 nM |  | 
18 | COc1c(-c2ccc3c(c2)CCC3O)cc(-n2ccc(=O)[nH]c2=O)cc1C(C)(C)C (centres unmarked) [IB-L0-2.36, 1-(3-tert-butyl-5-(1-hydroxy-2,3-dihydro-1H-inden-5-yl)-4-methoxyphenyl)pyrimidine-2,4(1H,3H)-dione] | 10 to 100 nM | 100 to 1000 nM |  | 
19 | COc1c(-c2ccc3cc(CNS(C)(=O)=O)sc3c2)cc(-n2ccc(=O)[nH]c2=O)cc1C(C)(C)C [IB-L0-2.40] | 100 to 1000 nM | > 1000 nM |  | 
20 | COc1c(-c2ccc3c(c2)CCC3NS(C)(=O)=O)cc(-n2ccc(=O)[nH]c2=O)cc1C(C)(C)C (centres unmarked) [IB-L0-2.44, N-(5-(3-tert-butyl-5-(2,4-dioxo-3,4-dihydropyrimidin-1(2H)-yl)-2-methoxyphenyl)-2,3-dihydro-1H-inden-1-yl)methanesulfonamide] | > 1000 nM | > 1000 nM |  | 
21 | CCCNc1nc2ccc(-c3cc(-n4ccc(=O)[nH]c4=O)cc(C(C)(C)C)c3OC)cc2s1 [IB-L0-2.46, 1-(3-tert-butyl-4-methoxy-5-(2-(propylamino)benzo[d]thiazol-6-yl)phenyl)pyrimidine-2,4(1H,3H)-dione] |  |  | 100 to 1000 nM | 100 to 1000 nM
22 | COc1c(-c2ccc3nc(-n4c(C)ccc4C)sc3c2)cc(-n2ccc(=O)[nH]c2=O)cc1C(C)(C)C [IB-L0-2.47, 1-(3-tert-butyl-5-(2-(2,5-dimethyl-1H-pyrrol-1-yl)benzo[d]thiazol-6-yl)-4-methoxyphenyl)pyrimidine-2,4(1H,3H)-dione] |  |  | > 1000 nM | > 1000 nM
23 | COc1c(-c2ccc3cc(NS(C)(=O)=O)ccc3n2)cc(-n2ccc(=O)[nH]c2=O)cc1C(C)(C)C [IB-L0-2.48, N-(2-(3-tert-butyl-5-(2,4-dioxo-3,4-dihydropyrimidin-1(2H)-yl)-2-methoxyphenyl)quinolin-6-yl)methanesulfonamide] |  |  | > 1000 nM | > 1000 nM
24 | COc1c(-c2ccc3c(c2)CCC3=O)cc(-n2ccc(=O)[nH]c2=O)cc1C(C)(C)C [IB-L0-2.50, 1-(3-tert-butyl-4-methoxy-5-(1-oxo-2,3-dihydro-1H-inden-5-yl)phenyl)pyrimidine-2,4(1H,3H)-dione] | 100 to 1000 nM | 100 to 1000 nM |  | 
25 | COc1c(-c2ccsc2)cc(-n2ccc(=O)[nH]c2=O)cc1-c1ccc2c(c1)CC=C2CNS(C)(=O)=O [IB-L0-2.62] | 10 to 100 nM | 100 to 1000 nM |  | 
26 | COc1c(-c2ccc3c(c2)CC=C3CNS(C)(=O)=O)cc(-n2ccc(=O)[nH]c2=O)cc1-c1cccs1 [IB-L0-2.63] | 10 to 100 nM | 100 to 1000 nM |  | 
27 | COc1c(-c2ccc3c(c2)CC=C3CNS(C)(=O)=O)cc(-n2ccc(=O)[nH]c2=O)cc1-c1ccco1 [IB-L0-2.65] | 10 to 100 nM | 100 to 1000 nM |  | 
28 | COc1c(-c2ccoc2)cc(-n2ccc(=O)[nH]c2=O)cc1-c1ccc2c(c1)CC=C2CNS(C)(=O)=O [IB-L0-2.67] | 10 to 100 nM | 100 to 1000 nM |  | 
